The record followed here is patent publication US20230331739A1, “INDOLO HEPTAMYL OXIME ANALOG CRYSTAL AS PARP INHIBITOR AND METHOD FOR PREPARING SAME” (CHIA TAI TIANQING PHARMACEUTICAL GROUP CO., LTD., priority 2020, published 2023).

Structures are written as SMILES. Where two headings read alike, the source gives them in different places.

Series [1] relates to MDA-MB-436 cells with BRCA1 mutation. The series can be described thus: Anti-proliferation study on MDA-MB-436 cells (CellTiter-Glo). It is filed as cell-based. The note with it: Homo sapiens, MDA-MB-436, 168 h; 7 days incubation. As for the experimental part: Materials: test compounds; RPMI-1640 medium; fetal bovine serum; penicillin/streptomycin antibiotic; MDA-MB-436 cells; Envision Multimode Plate Reader (PerkinElmer). MDA-MB-436 cells were seeded in a white 96-well plate by adding 80 μL of cell suspension (containing 3000 MDA-MB-436 cells) to each well. The cell plate was incubated in a CO2 incubator overnight. The test compounds were serially 5-fold diluted to the 8th concentration with a multichannel pipette, i.e., from 2 mM to 26 nM, in duplicate. 78 μL of medium was added to an intermediate plate, and the serially diluted compound was transferred to the intermediate plate at 2 μL per well. After being mixed well, the mixture was transferred to the cell plate at 20 μL per well. […] Another cell plate was provided for reading signal values on the day of compound addition and these signal values were used as Max values in data analysis. Promega CellTiter-Glo was added to the cell plate at 25 μL per well and the luminescence signals were stabilized by incubation for 10 min at room temperature. Readings were taken using a PerkinElmer Envision Multimode Plate Reader. […]

Series [2] addresses CYP1A2 (Homo sapiens (Human), UniProt P05177). The series can be described thus: Inhibition against cytochrome P450 isoenzymes, CYP1A2. It is filed as in vitro ADME. The note with it: human liver microsomes. As for the experimental part:
(§1) The inhibition of the test compound against different subtypes of the human cytochrome P450 isoenzyme was determined. The test compound, a standard inhibitor (100×final concentration) and a mixed substrate working solution were prepared; the microsomes frozen in a refrigerator at −80° C. were taken out and thawed. […]

The target of series [3] is CYP2C9 (Homo sapiens (Human), UniProt P11712). The experiment in a line: Inhibition against cytochrome P450 isoenzymes, CYP2C9. The settings on record: human liver microsomes. The format is in vitro ADME. As to the method:
as §1

The target of series [4] is CYP2C19 (Homo sapiens (Human), UniProt P33261). The experiment in a line: Inhibition against cytochrome P450 isoenzymes, CYP2C19. It is filed as in vitro ADME. The settings on record: human liver microsomes. As for the experimental part: as §1
A general note: Liver microsomes are a subcellular fraction often used to study metabolism.

In series [5] the target is CYP3A4-M (Homo sapiens (Human), UniProt P08684). The series can be described thus: Inhibition against cytochrome P450 isoenzymes, CYP3A4-M. It is filed as in vitro ADME. The settings on record: human liver microsomes. As to the method: as §1
Series [6] is described as follows: Metabolic stability in liver microsomes, human. The settings on record: 1 μM, 0.5 mg/mL. The format is in vitro ADME. As to the method:
(§2) Objective: To test the metabolic stability of the test compound in liver microsomes of three species.
(§3) Procedures: 1 μM test compound and microsomes (0.5 mg/mL) were incubated at 37° C. in the presence of an NADPH regeneration system. Positive controls were testosterone ([…]), propylamine propiophenone (2D6 substrate) and diclofenac (2C9 substrate). At 37° C., positive controls were incubated with microsomes (0.5 mg/mL) in the presence of an NADPH regeneration system. The reaction was stopped by direct mixing of the sample with cold acetonitrile containing an internal standard at various time points (0, 5, 10, 20, 30 and 60 min). The compound and microsomes were incubated for 60 min in the absence of an NADPH regeneration system. One replicate (n=1) was set at each time point. The samples were analyzed by LC/MS/MS; the concentration of the compound was characterized by the ratio of the analyte peak area to the internal standard peak area.

Series [7] is described as follows: Metabolic stability in liver microsomes, mouse. It is filed as in vitro ADME. The note with it: 1 μM, 0.5 mg/mL. As for the experimental part: as §2, §3
A short description of series [8]: Single-dose pharmacokinetic study in mice. The format is in vivo, male C57BL/6 mice. As for the experimental part:
Objectives: To evaluate the pharmacokinetic behavior in male C57BL/6 mice and to determine the drug concentrations of the compound in the plasma, liver and cerebrospinal fluid after a single dose.
Procedures: Healthy adult male C57BL/6 mice were selected for intragastric administration. The candidate compound was mixed with an appropriate amount of 10% DMSO/90% (20% hydroxypropyl-@-cyclodextrin), vortexed and sonicated to prepare a 0.5 mg/mL clear solution for later use. After the mice were administered intravenously at 1 mg/kg and orally at 5 mg/kg, whole blood was collected at certain time points. Plasma was separated, and liver and cerebrospinal fluid were collected. After pretreatment of the samples, the drug concentration was measured by LC-MS/MS, and pharmacokinetic parameters were calculated using Phoenix WinNonlin software.

Setting [9] is: male, C57BL/6, mouse, plasma, IV: 1 mg/kg PO: 5 mg/kg.

Sequence of CYP3A4-M (P08684 whole entry): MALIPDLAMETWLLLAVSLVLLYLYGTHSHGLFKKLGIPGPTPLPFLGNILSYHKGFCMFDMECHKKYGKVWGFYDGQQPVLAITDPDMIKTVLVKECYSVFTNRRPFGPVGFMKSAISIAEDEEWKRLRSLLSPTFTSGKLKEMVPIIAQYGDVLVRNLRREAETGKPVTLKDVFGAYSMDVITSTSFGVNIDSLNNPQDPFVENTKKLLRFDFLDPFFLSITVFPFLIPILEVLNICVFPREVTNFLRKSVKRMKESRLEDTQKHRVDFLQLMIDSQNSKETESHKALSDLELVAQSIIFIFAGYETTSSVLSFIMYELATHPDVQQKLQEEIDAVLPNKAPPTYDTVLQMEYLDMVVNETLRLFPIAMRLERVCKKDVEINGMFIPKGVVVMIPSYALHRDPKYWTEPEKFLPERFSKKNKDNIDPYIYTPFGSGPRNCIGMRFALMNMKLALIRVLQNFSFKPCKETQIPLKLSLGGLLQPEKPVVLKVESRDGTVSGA
Sequence of CYP1A2 (P05177 whole entry): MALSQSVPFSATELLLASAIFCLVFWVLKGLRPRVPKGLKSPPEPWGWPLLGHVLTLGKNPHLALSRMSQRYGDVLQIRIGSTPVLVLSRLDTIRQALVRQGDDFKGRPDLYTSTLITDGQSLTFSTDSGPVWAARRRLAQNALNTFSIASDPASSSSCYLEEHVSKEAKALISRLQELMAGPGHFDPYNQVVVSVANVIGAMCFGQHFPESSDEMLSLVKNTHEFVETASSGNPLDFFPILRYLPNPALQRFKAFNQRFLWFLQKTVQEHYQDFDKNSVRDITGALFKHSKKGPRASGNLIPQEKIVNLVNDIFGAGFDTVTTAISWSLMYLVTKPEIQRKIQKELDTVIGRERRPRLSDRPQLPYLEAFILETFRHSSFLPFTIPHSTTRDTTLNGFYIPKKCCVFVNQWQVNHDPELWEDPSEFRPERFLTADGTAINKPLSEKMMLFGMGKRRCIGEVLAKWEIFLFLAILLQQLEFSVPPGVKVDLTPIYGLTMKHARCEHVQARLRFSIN
Sequence of CYP2C19 (P33261 whole entry): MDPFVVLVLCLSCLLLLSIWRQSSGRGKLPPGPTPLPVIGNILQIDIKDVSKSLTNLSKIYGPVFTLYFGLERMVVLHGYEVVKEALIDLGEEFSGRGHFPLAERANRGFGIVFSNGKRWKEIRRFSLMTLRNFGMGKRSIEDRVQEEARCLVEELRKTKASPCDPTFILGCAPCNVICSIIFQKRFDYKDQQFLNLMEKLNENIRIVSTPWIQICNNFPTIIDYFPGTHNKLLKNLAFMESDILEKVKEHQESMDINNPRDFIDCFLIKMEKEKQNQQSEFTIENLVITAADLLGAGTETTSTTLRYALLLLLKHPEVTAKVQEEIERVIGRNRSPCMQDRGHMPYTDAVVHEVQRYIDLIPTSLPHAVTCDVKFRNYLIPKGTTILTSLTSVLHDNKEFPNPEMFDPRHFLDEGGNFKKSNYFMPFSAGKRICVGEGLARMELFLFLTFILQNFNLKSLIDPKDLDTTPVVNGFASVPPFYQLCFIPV
Sequence of CYP2C9 (P11712 whole entry): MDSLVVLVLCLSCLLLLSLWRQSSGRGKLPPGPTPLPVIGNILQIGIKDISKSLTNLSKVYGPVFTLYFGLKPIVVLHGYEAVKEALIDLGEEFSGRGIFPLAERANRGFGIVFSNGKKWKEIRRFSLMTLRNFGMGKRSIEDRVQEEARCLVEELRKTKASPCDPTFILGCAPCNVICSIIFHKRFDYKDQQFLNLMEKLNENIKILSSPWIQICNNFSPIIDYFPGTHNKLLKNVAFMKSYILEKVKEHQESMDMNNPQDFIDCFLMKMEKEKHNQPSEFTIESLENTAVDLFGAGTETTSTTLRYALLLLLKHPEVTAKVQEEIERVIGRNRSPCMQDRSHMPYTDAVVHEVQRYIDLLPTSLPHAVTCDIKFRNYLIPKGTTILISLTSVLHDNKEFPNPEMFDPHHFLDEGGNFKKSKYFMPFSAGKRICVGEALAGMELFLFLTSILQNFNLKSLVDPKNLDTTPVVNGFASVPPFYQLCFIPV

In the case of `C[C@]1(c2ccc(-c3[nH]c4cc(F)cc5c4c3CONC5=O)cc2)CCCN1` [Compound 1], the IC50 in series [1] is 0.0123 µM; in series [2], > 50 µM; in series [3] it was > 50 µM; in series [4], 8.33 µM; in series [5], 32.9 µM. In addition, the “Residual content after 60 min of incubation” value in series [6] came out at 35.9%; in series [7], 40.7%. In addition, the Maximum concentration in series [8] (IV: 1 mg/kg PO: 5 mg/kg) was determined as 240 nM. Besides, the AUC(0-t) in series [8] (male, C57BL/6, mouse, plasma, IV 1 mg/kg, read-out: AUC0-last (intravenous injection)) was 0.958 µM·h; in series [8] (male, C57BL/6, mouse, plasma, PO 5 mg/kg, read-out: AUC0-last (oral)), 1.19 µM·h. Besides, the bioavailability in series [8] (setting [9]) was 24.8%. The same compound had a half-life in series [8] (setting [9]) of 3.02 h. Also, the Vd in series [8] (male, C57BL/6, mouse, plasma, IV: 1 mg/kg PO: 5 mg/kg, read-out: Apparent volume of distribution) was 9.44 L/kg. Further, in series [8] (male, C57BL/6, mouse, plasma, IV: 1 mg/kg PO: 5 mg/kg, read-out: Clearance rate), the clearance turned out to be 41 mL/min/kg.

The IC50 is the concentration that inhibits the measured activity by half. One may read the bioavailability as dose-corrected exposure relative to a reference, in per cent. One may read the half-life as the time in which the quantity being followed falls by half.
